{
  "source": "patent US20240082414A1",
  "about": "“HUMAN TUMOR NECROSIS FACTOR ALPHA ANTIBODY GLUCOCORTICOID CONJUGATES” (Eli Lilly and Company, priority 2022, published 2024)",
  "system": "anti-drug antibodies against adalimumab",
  "test": "ACE-Bridge binding to cynomolgus monkey anti-drug antibodies against adalimumab",
  "conditions": "FIG. 3; AP-HIMS from monkeys hyperimmunized with adalimumab; bridging with the labeled test antibody",
  "procedure": "Example 5a. […] The anti-adalimumab antibodies were detected using a titration of AP-HIMS in an ACE-Bridge assay. The assay was developed following the FDA Guidance on Immunogenicity testing. […] The following day, plates were washed three times with TBST and the captured anti-adalimumab antibodies were acid eluted using 65 μL/well of 300 mM acetic acid (Fisher Scientific, A38-500) for 5 min at room temperature. […] Next, 50 μL of the acid eluted samples were added to the polypropylene plate containing the mixture in neutralizing buffer and the ADA and were allowed to bridge to the labeled antibodies for 1 h at room temperature. MSD Gold 96-well streptavidin plates (Mesoscale, L15SA-1) were washed and blocked with TBS+1% BSA for 1 h at room temperature, then washed, and 80 μL of bridged samples were added to the plate for 1 h. The plates were washed three times with TBST, and 150 μL/well of 2×MSD Buffer (Mesoscale, R92TC-2) was added to the plates. Plates were read on an MSD SQ120 reader to provide the Tier 1 signal expressed as electro chemiluminescent units (ECLU).\nThe resulting ECLU signal was then plotted as a function of the concentration of AP-HIMS tested.",
  "data": [
    {"substance": "adalimumab: other anti-TNFα therapeutic antibody [reference compound]", "values": [
      {"measurement": "maximum ECLU signal", "value": 40000, "unit": "ECLU"}
    ]}
  ]
}
